The text below walks through data of patent US9428487B2, “Heteroaromatic amides and thioamides as pesticides” (Bayer Intellectual Property GmbH, priority 2008, dated 2016).

Data set [1] can be described thus: Determination of log P values by HPLC on reversed-phase column (formic acid method). It counts as physicochemical. The essentials: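 Reversed-phase C18 HPLC per EEC Directive 79/831 Annex V.A8, pH 3.4, acetonitrile/water with formic acid, gradient 10% to 95% acetonitrile in 4.25 min. log P obtained from retention times by linear interpolation between successive unbranched alkan-2-ones (C3–C16) of known log P.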

Data set [2] relates to green peach aphid (Myzus persicae). Nature of the data set: Myzus test. Conditions: read-out: efficacy (aphids killed). The data set is classed as in vivo. The gist of the method: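 Active ingredient formulated in acetone/dimethylformamide with alkylaryl polyglycol ether emulsifier, diluted in emulsifier-containing water. Sprayed onto Chinese cabbage leaf discs carrying all aphid stages; % efficacy scored after set time (100% = all aphids dead).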

The mark [3] stands for this setting: reversed-phase HPLC column (C 18), pH 3.4, HPLC, reversed-phase C 18, acidic range (pH 3.4), formic acid eluents, 55° C., read-out: logP (HCOOH).
Setting [4] is: application rate 500 g/ha, spray on Chinese cabbage leaf slices.
Where [5] appears, read: HPLC, reversed-phase C 18, acidic range (pH 3.4), formic acid eluents, 55° C., read-out: logP (HCOOH).

Like-named read-outs stand apart in the source and are kept apart here. A value given as a limit tells only on which side of the number the result lay.

For `Cc1nc(-c2cccnc2)sc1C(=O)NCC#N` [Compound 184], in data set [1] (setting [3]), the chromatographic logP was 1.05. Further, in data set [2] (setting [4]), the pest or weed control at 500 g/ha is not below 70%.

As for `COc1ccc(CN(CC(F)(F)F)C(=O)c2sc(-c3cccnc3)nc2C)cc1` [Compound 185], the chromatographic logP in data set [1] (setting [3]) was determined as 2.91. The pest or weed control at 500 g/ha in data set [2] (setting [4]) is not below 70%.

`Cc1ccc(CNC(=O)c2cnc(-c3cccnc3)s2)o1` [Compound 186]: in data set [1] (setting [3]), the chromatographic logP is 1.77. Further, in data set [2] (setting [4]), the pest or weed control at 500 g/ha is not below 70%.

`CCN(CC1CCCO1)C(=O)c1sc(-c2cccnc2)nc1C` (stereo not drawn) [Compound 187]: the chromatographic logP in data set [1] (setting [3]) amounted to 1.64. Moreover, the pest or weed control at 500 g/ha in data set [2] (setting [4]) was not below 70%.

With `COCN(CC1COCCO1)C(=O)c1sc(-c2cccnc2)nc1C` (stereo not drawn) [Compound 188], in data set [1] (setting [3]), the chromatographic logP was 1.45. Further, the pest or weed control at 500 g/ha in data set [2] (setting [4]) was not below 70%.

`Cc1nc(-c2cccnc2)sc1C(=O)NCC(F)(F)C(F)(F)F` [Compound 189]: in data set [1] (setting [3]), the chromatographic logP came to 2.13. Further, in data set [2] (setting [4]), the pest or weed control at 500 g/ha was not below 70%.

Regarding `CCC(=O)N(CC#N)C(=O)c1cnc(-c2cccnc2)s1` [Compound 190], the chromatographic logP in data set [1] (setting [3]) was 1.77. Moreover, the pest or weed control at 500 g/ha in data set [2] (setting [4]) is not below 70%.

With `CSC[C@H](C)NC(=O)c1cnc(-c2cccnc2)s1` [Compound 191], in data set [1] (setting [3]), the chromatographic logP was 1.53. For the same compound, in data set [2] (setting [4]), the pest or weed control at 500 g/ha is not below 70%.

Turning to `CN(CC(F)(F)F)C(=O)c1cnc(-c2cccnc2)s1` [Compound 192], in data set [1] (setting [3]), the chromatographic logP is 1.59. The pest or weed control at 500 g/ha in data set [2] (setting [4]) was not below 70%.

As to `Cc1nc(-c2cccnc2)sc1C(=O)NC1(c2ncccn2)CC1` [Compound 193], the chromatographic logP in data set [1] (setting [3]) was 1.21. Also, the pest or weed control at 500 g/ha in data set [2] (setting [4]) is not below 70%.

Regarding `Cc1nc(-c2cccnc2)sc1C(=O)NC1CSC1` [Compound 194], in data set [1] (setting [3]), the chromatographic logP worked out at 1.47. Also, the pest or weed control at 500 g/ha in data set [2] (setting [4]) is not below 70%.

On to `Cc1nc(-c2cccnc2)sc1C(=O)NC(C)C1CCCO1` (stereo not drawn) [Compound 195], for which the chromatographic logP in data set [1] (setting [3]) amounted to 1.5. Moreover, the pest or weed control at 500 g/ha in data set [2] (setting [4]) was not below 70%.

For `COC(=O)N(C)NC(=O)c1sc(-c2cccnc2)nc1C` [Compound 196], the chromatographic logP in data set [1] (setting [5]) was 1.23. Also, the pest or weed control at 500 g/ha in data set [2] (setting [4]) was not below 70%.

For the compound `CCOC(=O)N(C)NC(=O)c1sc(-c2cccnc2)nc1C` [Compound 197], the chromatographic logP in data set [1] (setting [5]) is 1.48. Besides, in data set [2] (setting [4]), the pest or weed control at 500 g/ha is not below 70%.

Take `CCC1(CC)NC(=O)N(NC(=O)c2sc(-c3cccnc3)nc2C)C1=O` [Compound 199]: the chromatographic logP in data set [1] (setting [3]) was found to be 1.44. For the same compound, the pest or weed control at 500 g/ha in data set [2] (setting [4]) was not below 70%.

Consider `Cc1nc(-c2cccnc2)sc1C(=O)NN(C)Cc1ccccn1` [Compound 200], for which, in data set [1] (setting [3]), the chromatographic logP turned out to be 1.01. In data set [2] (setting [4]), the pest or weed control at 500 g/ha was not below 70%.

As to `Cc1nc(-c2cccnc2)sc1C(=O)NN1CCCC1` [Compound 201], in data set [1] (setting [3]), the chromatographic logP was determined as 1.37. In addition, in data set [2] (setting [4]), the pest or weed control at 500 g/ha is not below 70%.

For `Cc1nc(-c2cccnc2)sc1C(=O)NN1CCCCC1` [Compound 202], the chromatographic logP in data set [1] (setting [3]) came out at 1.39. Besides, the pest or weed control at 500 g/ha in data set [2] (setting [4]) was not below 70%.

For the compound `Cc1nc(-c2cccnc2)sc1C(=O)NN1CCOCC1` [Compound 203], the chromatographic logP in data set [1] (setting [3]) turned out to be 1.23. For the same compound, in data set [2] (setting [4]), the pest or weed control at 500 g/ha was not below 70%.

`Cc1nc(-c2cccnc2)sc1C(=O)NN1CCOC1=O` [Compound 204]: in data set [1] (setting [3]), the chromatographic logP came to 1.11. Besides, in data set [2] (setting [4]), the pest or weed control at 500 g/ha is not below 70%.

For `Cc1nc(-c2cccnc2)sc1C(=O)NCC(F)(F)Cl` [Preparation Example 1, N-(2-chloro-2,2-difluoroethyl)-4-methyl-2-pyridin-3-ylthiazole-5-carboxamide], the chromatographic logP in data set [1] (setting [3]) stood at 1.84. For the same compound, the pest or weed control at 500 g/ha in data set [2] (in Brassica rapa) was not below 70%.

`Cc1cc(C)nc(CNC(=O)c2cnc(-c3cccnc3)s2)n1` [Preparation Example 3]: the chromatographic logP in data set [1] (setting [3]) was found to be 1.19. In data set [2] (in Brassica rapa), the pest or weed control at 500 g/ha is not below 70%.

Take `Cc1nc(-c2cccnc2)sc1C(=S)NCC(F)(F)F` [Preparation Example 4]: the “logP (HCOOH)” value in data set [1] (HPLC, reversed-phase C 18, acidic range (pH 3.4), formic acid eluents, 55° C.) came to 2.38. Further, the chromatographic logP in data set [1] (setting [3]) turned out to be 2.39. Also, in data set [2] (setting [4]), the pest or weed control at 500 g/ha is not below 70%.

Regarding `Cc1nc(-c2cncnc2)sc1C(=O)NCC(F)(F)F` [Preparation Example 5], the chromatographic logP in data set [1] (setting [3]) was 1.61. Moreover, the pest or weed control at 500 g/ha in data set [2] (setting [4]) was not below 70%.

Take `O=C(NCc1ncccn1)c1nnc(-c2cccnc2)s1` [Preparation Example 7]: the chromatographic logP in data set [1] (pH 7.5, pH=7.5, read-out: log P (pH=7.5)) amounted to 0.85; in data set [1] (setting [3]), 0.85. Besides, the pest or weed control at 500 g/ha in data set [2] (setting [4]) is not below 70%.

In the case of `CN(C)C(=O)c1nnc(-c2cccnc2)s1` [Preparation Example 8, N,N-dimethyl-5-pyridin-3-yl[1,3,4]thiadiazole-2-carboxamide], the chromatographic logP in data set [1] (setting [5]) worked out at 0.95. In data set [2] (in Brassica rapa), the pest or weed control at 500 g/ha was not below 70%.
